In ChEMBL document CHEMBL1127994, “Substrate specificity of immobilized penicillin-G acylase towards penicillin and cephalosporin derivatives was studied. The phenylacetyl moiety can be altered at the -position with several small substituents. Depending on polarity and size of the substituent, enzyme activity decreases or increases. …” (Bioorg Med Chem Lett, 1994):

Tested on: penicillin-G acylase
Experiment: (§1) Hydrolysis half life using immobilized penicillin-G acylase
Type: ADME
Details: immobilized penicillin-G acylase

Row | Compound | half-life
1 | CC1=C(C(=O)O)N2C(=O)[C@@H](NC=O)[C@H]2[S+]([O-])C1 (some centres not stated) | > 10000 min
2 | CC1=C(C(=O)O)N2C(=O)[C@@H](NC(=O)COc3ccccc3)[C@H]2SC1 | 1280 min
3 | CC1=C(C(=O)O)N2C(=O)[C@@H](NC(=O)COc3ccccc3)[C@H]2[S+]([O-])C1 (some centres not stated) | 1420 min
4 | CC1=C(C(=O)O)N2C(=O)[C@@H](NC(=O)Cc3ccsc3)[C@H]2SC1 | 65 min
5 | C=CC1=C(C(=O)O)N2C(=O)[C@@H](NC(=O)Cc3ccccc3)[C@H]2SC1 | 55 min
6 | CC1=C(C(=O)O)N2C(=O)[C@@H](NC(=O)C(O)c3ccccc3)[C@H]2SC1 (some centres not stated) | 5 min
7 | Cn1nnnc1SCC1=C(C(=O)O)N2C(=O)[C@@H](NC(=O)Cc3ccccc3)[C@H]2SC1 | 50 min
8 | CC1=C(C(=O)O)N2C(=O)[C@@H](NC(=O)Cc3ccccc3)[C@H]2SC1 | 45 min
9 | C/C=C/C1=C(C(=O)O)N2C(=O)[C@@H](NC(=O)Cc3ccccc3)[C@H]2SC1 | 50 min
10 | CC1=C(C(=O)O)N2C(=O)[C@@H](NC(=O)c3ccccc3)[C@H]2SC1 | > 10000 min
11 | O=C(Cc1ccccc1)N[C@@H]1C(=O)N2C(C(=O)O)=CCS[C@H]12 | 25 min

The next lines start with the values.

Row | half-life | Compound
12 | 80 min | CC1(C)S[C@@H]2[C@H](NC(=O)C(Br)c3ccccc3)C(=O)N2[C@H]1C(=O)O (some centres not stated)
13 | 25 min | CC1(C)S[C@@H]2[C@H](NC(=O)Cc3ccccc3)C(=O)N2[C@H]1C(=O)O [PENICILLIN G]
14 | 370 min | CC1=C(C(=O)O)N2C(=O)[C@@H](NC(=O)C(Br)c3ccccc3)[C@H]2[S+]([O-])C1 (some centres not stated)
15 | 50 min | CC1(C)[C@H](C(=O)O)N2C(=O)[C@@H](NC(=O)Cc3ccccc3)[C@H]2S1(=O)=O
16 | 3400 min | CCC(C(=O)N[C@@H]1C(=O)N2[C@@H]1SC(C)(C)[C@@H]2C(=O)O)c1ccccc1 (some centres not stated)
17 | 5 min | CC1(C)S[C@@H]2[C@H](NC(=O)[C@H](N)c3ccccc3)C(=O)N2[C@H]1C(=O)O [AMPICILLIN]
18 | 12 min | CC1(C)S[C@@H]2[C@H](NC(=O)[C@H](N)c3ccc(O)cc3)C(=O)N2[C@H]1C(=O)O [AMOXICILLIN]
19 | 90 min | CC1(C)[C@H](C(=O)O)N2C(=O)[C@@H](NC(=O)Cc3ccccc3)[C@H]2[S+]1[O-] (some centres not stated)
20 | 7000 min | CC1(C)S[C@@H]2[C@H](NC(=O)C(Cc3ccccc3)c3ccccc3)C(=O)N2[C@H]1C(=O)O (some centres not stated)

Tested on: not listed separately
Experiment: as §1
Type: ADME
Details: not given

Row | T1/2 | Compound
21 | 200 min | CC1=C(C(=O)O)N2C(=O)[C@@H](NC(=O)Cc3ccccc3)[C@H]2[S+]([O-])C1 (stereo in doubt; form 1)
22 | 33 min | CC1=C(C(=O)O)N2C(=O)[C@@H](NC(=O)Cc3ccccc3)[C@H]2[S+]([O-])C1 (stereo in doubt; form 2)
